Key:
C-RAF = target: T1, C-RAF (Homo sapiens, UniProt P04049); assay: Kinase inhibition assay (Reaction Biology Corporation); format: biochemical; settings: 10 μM ATP, 10-point curve
T1 construct: purchased Reaction Biology Corporation (Malvern, Pa.), contract assay service

[1] = tested on: MEK or ERK1/2 phosphorylation in A375 BRAF V600E mutant melanoma cancer cells; assay: Immunoblot analysis of BRAF signaling; format: cell-based; settings: FIG. 1B
Procedure: (§1) Cells were lysed in SDS lysis buffer (0.06 M Tris-HCL. 1% SDS and 10% glycerol) and protein concentration was determined using a BCA Protein assay (Thermo Scientific). Cellular lysates ([…]) were resolved by electrophoresis and transferred to nitrocellulose membranes using NuPage Novex reagents (Invitrogen). Membranes were immunoblotted with the indicated antibodies (Cell Signaling Technology) and then exposed to Supersignal ELISA femto maximum sensitivity substrate (Thermo Scientific) to generate a chemiluminescent signal.

[2] = tested on: MEK or ERK1/2 phosphorylation in SH-4 BRAF V600E mutant melanoma cancer cells; assay: Immunoblot analysis of BRAF signaling; format: cell-based; settings: SH-4 cells, FIG. 2B
Procedure: as §1

[3] = tested on: MEK or ERK1/2 phosphorylation in HT-29 BRAF V600E mutant colorectal cancer cells; assay: Immunoblot analysis of BRAF signaling; format: cell-based; settings: HT-29 cells, FIG. 4B
Procedure: as §1

[4] = tested on: C32 BRAF V600E het melanoma cell line; assay: Cell growth assay (automated cell line screening, Ricerca Biosciences); format: cell-based; settings: Homo sapiens, read-out: Ponatinib GI50 (nM), tested by Ricerca Biosciences
Procedure: (§2) Cell growth was assessed using the Cell Titer 96 Aqueous One Solution Cell Proliferation Assay (Promega) and absorbance was measured using a Wallac Victor microplate reader (PerkinElmer). To differentiate between a cytostatic and cytotoxic drug effect, the concentration that causes 50% growth inhibition (GI50) was determined by correcting for the cell count at time zero (time of treatment) and plotting data as percent growth relative to vehicle-treated cells using XLfit version 5.2.0 for Microsoft Excel. Data are shown as mean from 3 independent experiments performed in triplicate.
(§3) Cell growth assays were also performed as part of an automated cell line screening assay (Ricerca Biosciences, LLC, Bothell, Wash., USA). Experimental procedures are similar to those described above.

[5] = tested on: CHL-1 BRAF wt melanoma cell line; assay: as above; format: cell-based; settings: Homo sapiens, read-out: Ponatinib GI50 (nM), CHL-1, Melanoma, tested by Ricerca Biosciences
Procedure: as §2, §3

[6] = tested on: SK-MEL-24 BRAF V600E melanoma cell line; assay: Cell growth assay; format: cell-based; settings: Homo sapiens, read-out: Ponatinib GI50 (nM), SK-MEL-24, Melanoma, 72 hours
Procedure: as §2

[7] = tested on: A375 BRAF V600E melanoma cell line; assay: Cell growth assay; format: cell-based; settings: Homo sapiens, A-375, read-out: Ponatinib GI50 (nM), 72 hours
Procedure: as §2

[8] = tested on: SH-4 BRAF V600E melanoma cell line; assay: Cell growth assay; format: cell-based; settings: Homo sapiens, read-out: Ponatinib GI50 (nM), SH-4, Melanoma, 72 hours
Procedure: as §2

[9] = tested on: HT-29 BRAF V600E colorectal cancer cell line; assay: Cell growth assay; format: cell-based; settings: Homo sapiens, read-out: Ponatinib GI50 (nM), HT-29, Colorectal, 72 hours
Procedure: as §2

T1 sequence (P04049 whole entry): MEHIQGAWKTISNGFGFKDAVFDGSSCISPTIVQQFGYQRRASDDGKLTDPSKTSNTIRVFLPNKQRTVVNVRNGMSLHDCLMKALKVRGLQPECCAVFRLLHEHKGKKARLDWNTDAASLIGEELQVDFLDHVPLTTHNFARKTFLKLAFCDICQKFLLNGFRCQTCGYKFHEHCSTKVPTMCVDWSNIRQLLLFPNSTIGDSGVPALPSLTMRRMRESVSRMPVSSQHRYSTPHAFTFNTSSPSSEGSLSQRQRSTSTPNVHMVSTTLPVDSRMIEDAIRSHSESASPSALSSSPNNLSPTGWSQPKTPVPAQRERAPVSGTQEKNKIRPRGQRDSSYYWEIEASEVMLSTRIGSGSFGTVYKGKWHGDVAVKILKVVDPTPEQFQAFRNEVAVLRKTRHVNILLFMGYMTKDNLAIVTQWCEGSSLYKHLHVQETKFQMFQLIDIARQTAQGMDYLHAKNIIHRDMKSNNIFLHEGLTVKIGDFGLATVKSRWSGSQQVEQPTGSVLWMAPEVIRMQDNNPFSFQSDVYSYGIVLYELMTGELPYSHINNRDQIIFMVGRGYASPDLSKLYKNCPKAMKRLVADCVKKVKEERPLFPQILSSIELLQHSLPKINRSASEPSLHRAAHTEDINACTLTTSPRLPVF

Row | Compound | IC50 (C-RAF; Table 2) [nM] | also measured
1 | Cc1ccc(C(=O)Nc2cc(-n3ccnc3)cc(C(F)(F)F)c2)cc1C#Cc1cnc2c(NC(N)=O)cccn12 | 12.7 | –
2 | CC(C)N1CCN(Cc2ccc(NC(=O)c3cncc(C#Cc4cnc5cnccn45)c3)cc2C(F)(F)F)CC1 | 14.4 | –
3 | Cc1ccc(C(=O)Nc2cc(-n3cnc(C#N)c3)cc(C(F)(F)F)c2)cc1C#Cc1cnc2ccccn12 | 998 | –
4 | CC(=O)Nc1cccn2c(C#Cc3cc(C(=O)Nc4cccc(C(F)(F)F)c4)ccc3C)cnc12 | 7.3 | –
5 | Cc1ccc(C(=O)Nc2cc(C(F)(F)F)ccc2NCCN2CCCC2)cc1C#Cc1cnc2ccccn12 | 24.3 | –
6 | CN1CCN(Cc2ccc(NC(=O)c3cccc(C#Cc4cnc5cnccn45)c3)cc2Cl)CC1 | 3.96 | –
7 | Cc1ccc(C(=O)Nc2ccc(C#N)c(C(F)(F)F)c2)cc1C#Cc1cnc2ccccn12 | 57.3 | –
8 | CNC(=O)CNc1ccc(NC(=O)c2ccc(C)c(C#Cc3cnc4ccccn34)c2)cc1C(F)(F)F | 29.5 | –
9 | Cc1cnc(NC(=O)c2ccc(C)c(C#Cc3cnc4c(NC(N)=O)cccn34)c2)s1 | 2.49 | –
10 | O=C(Nc1cccc(C(F)(F)F)c1)c1cncc(C#Cc2cnc3cccnn23)c1 | 2.07 | –
11 | Cc1ccc(C(=O)Nc2cc(-n3ccnc3)cc(C(F)(F)F)c2)cc1C#Cc1cnc2c(N)cccn12 | 51.1 | –
12 | Cc1ccc(C(=O)Nc2cc(-n3ccnc3CN(C)C)cc(C(F)(F)F)c2)cc1C#Cc1cnc2cnccn12 | 9.22 | –
13 | Cc1ccc(C(=O)Nc2cc(C(F)(F)F)ccn2)cc1C#Cc1cnc2c(N)cccn12 | 4.78 | –
14 | Cc1ccc(C(=O)Nc2cc(CN3CCOCC3)cc(C(F)(F)F)c2)cc1C#Cc1cnc2ccccn12 | 83.1 | –
15 | CC(=O)Nc1cccn2c(C#Cc3cc(NC(=O)Nc4cc(C(F)(F)F)ccn4)ccc3C)cnc12 | 5.09 | –
16 | Cc1ccc(C(=O)Nc2cc(C(C)(C)C)on2)cc1C#Cc1cnc2cccnn12 | 4.27 | –
17 | Cc1ccc(C(=O)Nc2ccc(Cl)cc2)cc1C#Cc1cnc2cccnn12 | 10.7 | –
18 | Cc1ccc(C(=O)Nc2cc(-n3cnc(CN(C)C)c3)cc(C(F)(F)F)c2)cc1C#Cc1cnc2cccnn12 | 3.84 | –
19 | Cc1ccc(C(=O)Nc2cc(-c3cncnc3)cc(C(F)(F)F)c2)cc1C#Cc1cnc2cccnn12 | 8.5 | –
20 | Cc1ccc(-c2nc3cc(C(F)(F)F)ccc3[nH]2)cc1C#Cc1cnc2cccnn12 | 5.8 | –
21 | Cc1ccc(F)c(NC(=O)c2ccc(C)c(C#Cc3cnc4cccnn34)c2)c1 | 2.76 | –
22 | Cc1cc(C#Cc2cnc3cccnn23)cc(C(=O)Nc2cccc(C(F)(F)F)c2)c1 | 2940 | –
23 | Cc1ccc(C(=O)Nc2ccc(CN3CCN(C)CC3)c(C(F)(F)F)c2)cc1C#Cc1cnc2cnccn12 [Example 2, 3-(Imidazo[1,2-a]pyrazin-3-ylethynyl)-4-methyl-N-(4-((4-methylpiperazin-1-yl)methyl)-3-(trifluoromethyl)phenyl)benzamide] | – | IC50 (C-RAF; Table 1): 2.13 nM
24 | Cc1ccc(C(=O)Nc2ccc(CN3CCN(C)CC3)c(C(F)(F)F)c2)cc1C#Cc1cnc2ccccn12 [Example 8, 3-(Imidazo[1,2-a]pyridin-3-ylethynyl)-4-methyl-N-(4-((4-methylpiperazin-1-yl)methyl)-3-(trifluoromethyl)phenyl)benzamide] | – | IC50 (C-RAF; Table 1): 26 nM
25 | CC(=O)Nc1cccn2c(C#Cc3cc(C(=O)Nc4cc(C(F)(F)F)ccn4)ccc3C)cnc12 [Example 10, 3-((8-Acetamidoimidazo[1,2-a]pyridin-3-yl)ethynyl)-4-methyl-N-(4-(trifluoromethyl)pyridin-2-yl)benzamide] | – | IC50 (C-RAF; Table 1): 2.42 nM
26 | Cc1ccc(NC(=O)c2ccc(CN3CCN(C)CC3)c(C(F)(F)F)c2)cc1C#Cc1cnc2cccnn12 [Example 15, N-(3-(Imidazo[1,2-b]pyridazin-3-ylethynyl)-4-methylphenyl)-4-((4-methylpiperazin-1-yl)methyl)-3-(trifluoromethyl)benzamide] | – | IC50 (C-RAF; Table 1): 12.2 nM
27 | Cc1ccc(C(=O)Nc2ccc(CN3CCN(C)CC3)c(C(F)(F)F)c2)cc1C#Cc1cnc2cccnn12 [Ponatinib, 3-(Imidazo[1,2-b]pyridazin-3-ylethynyl)-4-methyl-N-(4-((4-methylpiperazin-1-yl)methyl)-3-(trifluoromethyl)phenyl)benzamide] | – | MEK or ERK1/2 phosphorylation [1]: inhibit; MEK or ERK1/2 phosphorylation [2]: inhibit; MEK or ERK1/2 phosphorylation [3]: inhibit; GI50 [4]: 107 nM; GI50 [5]: 88.5 nM; GI50 [6]: 767 nM; GI50 [7]: 372 nM; GI50 [8]: 85.6 nM; GI50 [9]: 354 nM

More lines, main results first:

Row | IC50 (C-RAF; Table 2) [nM] | Compound | also measured
28 | 51.7 | CN1CCN(Cc2ccc(NC(=O)c3ccc(F)c(C#Cc4cnc5ccccn45)c3)cc2C(F)(F)F)CC1 | –
29 | 26.7 | CN1CCN(Cc2ccc(NC(=O)c3cccc(C#Cc4cnc5ccccn45)c3)cc2C(F)(F)F)CC1 | –
30 | 5.43 | Cc1ccc(C(=O)Nc2ccc(CN3CCOCC3)c(C(F)(F)F)c2)cc1C#Cc1cnc2cnccn12 | –
31 | 3.91 | Cc1ccc(C(=O)Nc2ccc(CC(=N)N)c(C(F)(F)F)c2)cc1C#Cc1cnc2cccnn12 | –
32 | 60.2 | Cc1ccc(C(=O)Nc2ccc(CN3CCCC3)c(C(F)(F)F)c2)cc1C#Cc1cnc2ccccn12 | –
33 | 17.2 | Cc1ccc(C(=O)Nc2cc(N3CCOCC3)cc(C(F)(F)F)c2)cc1C#Cc1cnc2cccnn12 | –
34 | 14.4 | Cc1ccc(C(=O)Nc2cc(N(C)CCO)cc(C(F)(F)F)c2)cc1C#Cc1cnc2cccnn12 | –
35 | 1.45 | Cc1ccc(C(=O)Nc2cccc(C(F)(F)F)c2)cc1C#Cc1cnc2cccnn12 | –
36 | 9.19 | Cc1ccc(C(=O)Nc2cc(-n3cnc(CN4CCCC4)c3)cc(C(F)(F)F)c2)cc1C#Cc1cnc2cccnn12 | –
37 | 4.39 | Cc1ccc(C(=O)Nc2ccc(C(F)(F)F)cc2)cc1C#Cc1cnc2cccnn12 | –
38 | 3.12 | Cc1ccc(NC(=O)c2ccc3ccn(C)c3c2)cc1C#Cc1cnc2cccnn12 | –
39 | 25.6 | CN1CCN(Cc2ccc(NC(=O)c3cncc(C#Cc4cnc5cccnn45)c3)cc2Cl)CC1 | –

Source: patent US20150105377A1, “Methods and Compositions for RAF Kinase Mediated Diseases” (ARIAD Pharmaceuticals, Inc., priority 2012, published 2015)
